From patent publication US8623911B2, “Boron-containing small molecules as anti-protozoal agent” (Anacor Pharmaceuticals, Inc., priority 2010, dated 2014)
Like-named read-outs stand apart in the source and are kept apart here.

Tests used:
[1] = system: TREU 667 strain of T. b. brucei; assay: Chronic CNS Model [Murine Stage 2 HAT]; assay type: in vivo; conditions: 50 mg/kg PO BID for 7 days, starting at Day 21 post-infection
Description: Mice were infected with 10,000 parasites of the TREU 667 strain of T. b. brucei. Twenty one days post-infection mice were treated with a dose of between 6 and 100 mg/kg of a compound of the invention, either BID or QD for 7 days intraperitoneally (IP) or orally (PO). Positive control mice were treated with Diminazene (10 mg/kg, IP) on Day 4 post-infection. Negative control mice were treated with Diminazene (10 mg/kg, PO) on Day 21. Since Diminazene is not able to penetrate the CNS, mice treated at Day 21 are not able to cure the infection. Starting 1 week after treatment, mice were checked for parasitemia by microscopic examination of smears prepared from tail vein blood. Parasite positive animals were immediately removed from the cages and euthanized. Animals were considered to be cured of a CNS infection if they were aparasitemic for at least 180 days after the end of the treatment period.

[2] = Pharmacokinetic studies in mice (plasma and brain, IV and oral gavage); assay type: in vivo, male CD-1 mice; conditions: for AUC(0-t) / clearance / AUC(0-inf) / Vd / CL/F / half-life: male, CD-1, mouse; for AUC(0-t): read-out: Exposure/trapezoid AUC0-last; for clearance: read-out: Clearance Cl (converted); for AUC(0-inf): read-out: Exposure/trapezoid AUC0-inf; for Vd: read-out: Vdss; for CL/F: read-out: Oral Clearance Cl/F (converted); for half-life: read-out: t½ (converted); for Cmax: mouse, male CD-1 mice
Description: Male CD-1 mice weighing approximately 20 to 30 g received the test article M1 by either intravenous (IV) or oral gavage (OG) routes. Animals in the IV group (11 animals, 1 per time point) received a single bolus injection at a nominal dose level of 2 mg/kg of the test article. Animals receiving oral doses were administered the test article as a single OG dose (10 animals per dose level, 1 per time point) at nominal dose levels of 25 and 50 mg/kg. IV doses were administered as a solution in 5% (w/v) dextrose in sterile water for injection. OG doses at 25 and 50 mg/kg were administered as suspensions in 5% (w/v) dextrose in sterile water for injection and as in situ sodium salts in 5% (m/v) dextrose: 2% (v/v) ethanol in DWI, respectively. All dose solutions were delivered at 4 mL/kg. Animals receiving the IV dose at 2 mg/kg or the OG dose at 25 mg/kg were not fasted. Animals receiving the OG dose at 50 mg/kg were fasted for 4 hours before dosing and for 1 hour after dosing. Blood and brain tissue were collected from 1 animal/timepoint/group at 0.17, 0.5, 1, 2, 3, 4, 6, 8, 12, 18 and 24 hr after IV dosing, and at 0.5, 1, 2, 3, 4, 6, 8, 12, 18 and 24 hr after OG dosing. Whole blood samples were processed completely to plasma following collection. Plasma and brain tissue were submitted to bioanalysis to determine pharmacokinetic parameters and test article CNS disposition. Plasma and brain tissue from non-dosed animals were collected to serve as surrogate pre-dose samples. Bioanalysis for test article in plasma and brain tissue was performed by HPLC with tandem mass spectrometry (LC-MSMS). Plasma samples were treated with 4 volumes of 0.5% formic acid in methanol to precipitate plasma proteins. Treated samples were centrifuged and supernatants removed for analysis. Brain tissues were massed and homogenized mechanically in the presence of 1 volume of phosphate-buffered saline (PBS). The resulting tissue homogenates were then diluted with a further volume of PBS, and then treated in the same manner as plasma. Extracted samples were assayed for test article by means of LC-MSMS employing reversed-phase chromatography coupled to a triple quadrupole mass spectrometer employing electrospray ionization in the positive ion mode. The analytical column was a Phenomenex Luna 3μ C8 50×2 mm, with an online sample purification step performed on a Phenomenex Synergi 4μ Polar RP 50×2 mm column. Test articles were eluted using a binary mobile phase gradient comprising 5 mM Ammonium Acetate: 0.1% formic acid in either MeOH or H2O. Non-compartmental analysis of plasma test article concentration versus time was performed in Microsoft Excel to generate pharmacokinetic parameters including: area under the curve (AUC), clearance (as Cl or Cl/F), volume of distribution (Vdss), half-life (t½), and bioavailability (F).

[3] = oral delivery to mice, 25 and 50 mg/kg

Structure (SMILES): O=C(Nc1ccc2c(c1)B(O)OCC2)c1ccc(F)cc1C(F)(F)F [M1, 4-Fluoro-N-(1-hydroxy-3,4-dihydro-1H-benzo[c][1,2]oxaborinin-7-yl)-2-trifluoromethyl-benzamide]
- mice with absence of blood parasites through Day 180 [1]: 100%
- period brain concentrations are maintained above the MIC ([2]; OG dosing at 25 mg/kg): approximately 5 hours
- period brain concentrations are maintained above the MIC ([2]; OG dosing at 50 mg/kg): ~10 h
- AUC(0-t) ([2]; brain, IV 2 mg/kg, last = 12 hours): 700 ng·h/mL
- clearance ([2]; brain, IV 2 mg/kg): 42.3 mL/min/kg
- AUC(0-inf) ([2]; brain, IV 2 mg/kg): 890 ng·h/mL
- Vd ([2]; brain, IV 2 mg/kg): 17.1 L/kg
- AUC(0-t) ([2]; brain, oral 25 mg/kg, last = 12 hours): 14300 ng·h/mL
- AUC(0-inf) ([2]; brain, oral 25 mg/kg): 14400 ng·h/mL
- CL/F ([2]; brain, oral 25 mg/kg): 29.2 mL/min/kg
- AUC(0-t) ([2]; brain, oral 50 mg/kg, last = 12 hours): 22900 ng·h/mL
- AUC(0-inf) ([2]; brain, oral 50 mg/kg): 24700 ng·h/mL
- CL/F ([2]; brain, oral 50 mg/kg): 36.5 mL/min/kg
- AUC(0-t) ([2]; plasma, IV 2 mg/kg, last = 24 hours): 1580 ng·h/mL
- clearance ([2]; plasma, IV 2 mg/kg): 27.8 mL/min/kg
- AUC(0-inf) ([2]; plasma, IV 2 mg/kg): 1610 ng·h/mL
- Vd ([2]; plasma, IV 2 mg/kg): 5 L/kg
- half-life ([2]; plasma, IV 2 mg/kg): 6.88 h
- AUC(0-t) ([2]; plasma, oral 25 mg/kg, last = 24 hours): 6390 ng·h/mL
- AUC(0-inf) ([2]; plasma, oral 25 mg/kg): 6460 ng·h/mL
- CL/F ([2]; plasma, oral 25 mg/kg): 64.5 mL/min/kg
- half-life ([2]; plasma, oral 25 mg/kg): 5.29 h
- AUC(0-t) ([2]; plasma, oral 50 mg/kg, last = 24 hours): 81400 ng·h/mL
- AUC(0-inf) ([2]; plasma, oral 50 mg/kg): 83400 ng·h/mL
- CL/F ([2]; plasma, oral 50 mg/kg): 10.2 mL/min/kg
- Cmax ([2]; brain, oral 25 mg/kg): 5840 ng/mL
- Cmax ([2]; brain, oral 50 mg/kg): 4210 ng/mL
- Cmax ([2]; plasma, oral 25 mg/kg): 2230 ng/mL
- Cmax ([2]; plasma, oral 50 mg/kg): 13400 ng/mL
- dose proportionality of brain exposure [2, 3]: approximately proportional
- dose proportionality of plasma exposure [2, 3]: superproportional increase
- period for which brain:plasma ratio is greater than unity ([2]; oral dose of 25 mg/kg): approximately 4 hours
- brain:plasma ratio ([2]; oral dose of 25 mg/kg, for approximately 4 hours following dosing): greater than unity
- F (% of IV) ([2]; plasma, oral 25 mg/kg): 43.2 % of IV
